Reference: ChEMBL document CHEMBL1201862, “PubChem BioAssay data set” (2004)
Calls of active or inactive are those of the source.

What was measured:
Troponin, cardiac muscle = Troponin, cardiac muscle (Homo sapiens, UniProt P19429+P45379+P63316); test: Fluorescence-based biochemical high throughput dose response assay for activators of the calcium sensitivity of cardiac Regulated Thin Filaments (RTF). [Related pubchem assays (depositor defined):AID493008, AID493018, AID504382, AID504383]; assay type: protein-complex assay
[1] = biological target: T1, High affinity choline transporter 1 (Homo sapiens, UniProt Q9GZV3); test: CHT inhibitors, dose response, cell-based, 5-point CRC, membrane potential dye (AID 504840); assay type: functional
T1 sequence (Q9GZV3 whole entry): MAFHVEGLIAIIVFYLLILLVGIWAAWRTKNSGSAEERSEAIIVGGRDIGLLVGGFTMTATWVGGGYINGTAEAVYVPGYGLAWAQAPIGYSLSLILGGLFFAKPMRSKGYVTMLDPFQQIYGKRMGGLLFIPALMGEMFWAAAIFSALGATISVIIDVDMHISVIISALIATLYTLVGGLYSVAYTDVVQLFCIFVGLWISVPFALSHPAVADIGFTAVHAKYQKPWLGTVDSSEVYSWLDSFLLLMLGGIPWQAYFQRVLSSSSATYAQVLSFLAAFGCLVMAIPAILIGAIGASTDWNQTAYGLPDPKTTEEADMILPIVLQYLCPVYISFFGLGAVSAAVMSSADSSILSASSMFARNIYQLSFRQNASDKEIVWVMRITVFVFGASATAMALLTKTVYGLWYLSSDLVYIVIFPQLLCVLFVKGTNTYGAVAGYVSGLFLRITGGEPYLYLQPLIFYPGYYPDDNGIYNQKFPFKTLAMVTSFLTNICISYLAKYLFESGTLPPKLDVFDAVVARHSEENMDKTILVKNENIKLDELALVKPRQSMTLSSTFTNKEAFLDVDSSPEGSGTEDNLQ

[2] = growth suppression of PTEN-null colon cells, dose response, cell-based, HCT116 PTEN knockout (AID 1047); assay type: functional;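 further: HCT116 colon tumor cells with PTEN knocked out; cells exposed to compound for 60 hours before readout; potency for loss of cell viability measured by luminescence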
[3] = growth suppression of beta-catenin-knockout colon cells, dose response, cell-based, HCT116, human colon tumor (AID 1045); assay type: functional;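 further: HCT116 colon tumor cells with beta catenin knocked out; cells exposed to compound for 60 hours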
[4] = biological target: T2, Short transient receptor potential channel 4 (Mus musculus, UniProt Q9QUQ5); test: mouse TRPC4 channel activators, dose response, cell-based, HEK293 TRPC4/mu-opioid, Fluo-4 calcium (AID 434937); assay type: functional
T2 sequence (Q9QUQ5 whole entry): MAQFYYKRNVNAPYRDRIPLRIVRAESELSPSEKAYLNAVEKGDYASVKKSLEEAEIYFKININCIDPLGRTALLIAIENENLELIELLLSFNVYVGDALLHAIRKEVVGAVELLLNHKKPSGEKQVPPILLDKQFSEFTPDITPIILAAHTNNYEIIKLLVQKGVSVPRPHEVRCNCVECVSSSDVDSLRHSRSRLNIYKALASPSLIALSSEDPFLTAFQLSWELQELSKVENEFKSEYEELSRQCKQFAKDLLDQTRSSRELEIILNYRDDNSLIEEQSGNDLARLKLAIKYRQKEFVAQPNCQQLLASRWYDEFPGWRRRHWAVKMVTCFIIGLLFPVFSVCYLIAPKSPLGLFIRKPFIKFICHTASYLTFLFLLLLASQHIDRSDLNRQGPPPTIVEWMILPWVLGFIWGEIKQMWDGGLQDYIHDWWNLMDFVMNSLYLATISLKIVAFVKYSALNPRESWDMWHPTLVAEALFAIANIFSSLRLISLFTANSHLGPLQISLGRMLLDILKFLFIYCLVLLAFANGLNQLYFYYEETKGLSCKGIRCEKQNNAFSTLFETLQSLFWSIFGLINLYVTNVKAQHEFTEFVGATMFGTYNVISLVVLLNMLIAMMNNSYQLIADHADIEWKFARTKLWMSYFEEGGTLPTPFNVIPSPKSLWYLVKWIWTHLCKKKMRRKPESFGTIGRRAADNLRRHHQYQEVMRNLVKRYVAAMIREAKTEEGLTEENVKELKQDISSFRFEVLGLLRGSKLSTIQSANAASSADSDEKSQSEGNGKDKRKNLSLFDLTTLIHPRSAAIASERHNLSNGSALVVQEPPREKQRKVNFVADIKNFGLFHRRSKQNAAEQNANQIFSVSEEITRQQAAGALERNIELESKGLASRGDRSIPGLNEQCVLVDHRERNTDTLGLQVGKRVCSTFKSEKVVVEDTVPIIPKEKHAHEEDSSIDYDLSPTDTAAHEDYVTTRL

[5] = biological target: Voltage-dependent T-type calcium channel subunit alpha-1H (Homo sapiens, UniProt O95180); assay type: functional;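 further: channel activity triggered by adding a high calcium stimulation buffer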
Sequence of Voltage-dependent T-type calcium channel subunit alpha-1H (O95180 whole entry): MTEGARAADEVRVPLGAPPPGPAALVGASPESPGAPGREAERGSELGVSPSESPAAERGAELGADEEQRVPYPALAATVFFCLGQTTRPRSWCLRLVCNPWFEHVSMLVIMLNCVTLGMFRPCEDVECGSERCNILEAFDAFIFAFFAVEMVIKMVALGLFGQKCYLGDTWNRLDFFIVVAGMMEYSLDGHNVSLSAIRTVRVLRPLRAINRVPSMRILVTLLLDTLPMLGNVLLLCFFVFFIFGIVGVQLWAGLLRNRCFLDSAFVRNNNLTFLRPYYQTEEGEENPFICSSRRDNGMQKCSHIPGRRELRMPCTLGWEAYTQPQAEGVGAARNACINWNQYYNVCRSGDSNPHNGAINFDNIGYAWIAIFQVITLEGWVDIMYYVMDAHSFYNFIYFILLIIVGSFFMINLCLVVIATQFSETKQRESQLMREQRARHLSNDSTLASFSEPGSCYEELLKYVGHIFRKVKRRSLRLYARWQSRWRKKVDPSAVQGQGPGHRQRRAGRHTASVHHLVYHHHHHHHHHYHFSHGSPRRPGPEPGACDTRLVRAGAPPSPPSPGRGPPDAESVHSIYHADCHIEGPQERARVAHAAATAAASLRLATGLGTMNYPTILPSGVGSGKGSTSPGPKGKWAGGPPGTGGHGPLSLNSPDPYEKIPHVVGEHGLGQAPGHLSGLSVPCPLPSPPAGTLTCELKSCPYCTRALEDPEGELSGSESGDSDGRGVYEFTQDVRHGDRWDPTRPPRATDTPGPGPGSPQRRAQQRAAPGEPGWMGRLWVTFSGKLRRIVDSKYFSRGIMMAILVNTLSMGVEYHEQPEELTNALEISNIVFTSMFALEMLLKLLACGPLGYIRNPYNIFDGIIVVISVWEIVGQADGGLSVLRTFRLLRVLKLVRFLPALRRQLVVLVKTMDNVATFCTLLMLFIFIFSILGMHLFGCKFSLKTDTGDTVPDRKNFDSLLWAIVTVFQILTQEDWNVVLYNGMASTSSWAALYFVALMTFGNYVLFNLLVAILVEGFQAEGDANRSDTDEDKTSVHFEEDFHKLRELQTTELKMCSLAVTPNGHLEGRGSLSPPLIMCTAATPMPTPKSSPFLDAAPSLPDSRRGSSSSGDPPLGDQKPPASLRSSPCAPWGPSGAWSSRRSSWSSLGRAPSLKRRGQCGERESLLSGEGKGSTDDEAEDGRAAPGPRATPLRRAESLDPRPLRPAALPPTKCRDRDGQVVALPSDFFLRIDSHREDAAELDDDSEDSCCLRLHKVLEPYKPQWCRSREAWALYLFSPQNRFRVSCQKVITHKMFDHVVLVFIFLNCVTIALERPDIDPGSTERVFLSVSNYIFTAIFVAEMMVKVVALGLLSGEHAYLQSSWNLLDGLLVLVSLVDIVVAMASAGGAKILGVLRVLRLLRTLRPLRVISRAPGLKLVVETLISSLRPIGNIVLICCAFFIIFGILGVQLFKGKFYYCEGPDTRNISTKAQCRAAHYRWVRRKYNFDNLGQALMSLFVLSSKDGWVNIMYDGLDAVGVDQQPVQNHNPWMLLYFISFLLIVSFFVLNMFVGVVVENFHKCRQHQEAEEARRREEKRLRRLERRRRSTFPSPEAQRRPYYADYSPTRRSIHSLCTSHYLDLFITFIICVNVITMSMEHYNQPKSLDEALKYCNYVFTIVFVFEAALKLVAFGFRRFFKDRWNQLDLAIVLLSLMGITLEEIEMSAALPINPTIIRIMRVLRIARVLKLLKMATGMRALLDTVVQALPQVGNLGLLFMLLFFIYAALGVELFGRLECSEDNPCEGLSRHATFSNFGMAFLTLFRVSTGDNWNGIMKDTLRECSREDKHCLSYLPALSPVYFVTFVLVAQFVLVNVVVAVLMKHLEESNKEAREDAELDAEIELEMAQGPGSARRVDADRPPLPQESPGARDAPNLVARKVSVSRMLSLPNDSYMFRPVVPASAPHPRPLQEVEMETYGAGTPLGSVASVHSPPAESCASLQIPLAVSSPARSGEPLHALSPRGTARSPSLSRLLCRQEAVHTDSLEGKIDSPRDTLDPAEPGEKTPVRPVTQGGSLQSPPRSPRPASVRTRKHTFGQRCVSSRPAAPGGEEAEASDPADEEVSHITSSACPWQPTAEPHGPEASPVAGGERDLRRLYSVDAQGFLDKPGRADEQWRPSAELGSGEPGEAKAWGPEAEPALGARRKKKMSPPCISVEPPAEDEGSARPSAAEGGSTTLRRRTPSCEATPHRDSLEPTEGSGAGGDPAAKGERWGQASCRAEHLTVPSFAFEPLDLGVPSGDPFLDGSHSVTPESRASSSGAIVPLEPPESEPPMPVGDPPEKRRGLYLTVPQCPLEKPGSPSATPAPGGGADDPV

Large T antigen = Large T antigen (Simian virus 40, UniProt P03070); assay type: functional, Betapolyomavirus macacae;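 further: Confirmatory-stage PubChem screen for compounds that inhibit SV40 T antigen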
Sequence of Large T antigen (P03070 whole entry): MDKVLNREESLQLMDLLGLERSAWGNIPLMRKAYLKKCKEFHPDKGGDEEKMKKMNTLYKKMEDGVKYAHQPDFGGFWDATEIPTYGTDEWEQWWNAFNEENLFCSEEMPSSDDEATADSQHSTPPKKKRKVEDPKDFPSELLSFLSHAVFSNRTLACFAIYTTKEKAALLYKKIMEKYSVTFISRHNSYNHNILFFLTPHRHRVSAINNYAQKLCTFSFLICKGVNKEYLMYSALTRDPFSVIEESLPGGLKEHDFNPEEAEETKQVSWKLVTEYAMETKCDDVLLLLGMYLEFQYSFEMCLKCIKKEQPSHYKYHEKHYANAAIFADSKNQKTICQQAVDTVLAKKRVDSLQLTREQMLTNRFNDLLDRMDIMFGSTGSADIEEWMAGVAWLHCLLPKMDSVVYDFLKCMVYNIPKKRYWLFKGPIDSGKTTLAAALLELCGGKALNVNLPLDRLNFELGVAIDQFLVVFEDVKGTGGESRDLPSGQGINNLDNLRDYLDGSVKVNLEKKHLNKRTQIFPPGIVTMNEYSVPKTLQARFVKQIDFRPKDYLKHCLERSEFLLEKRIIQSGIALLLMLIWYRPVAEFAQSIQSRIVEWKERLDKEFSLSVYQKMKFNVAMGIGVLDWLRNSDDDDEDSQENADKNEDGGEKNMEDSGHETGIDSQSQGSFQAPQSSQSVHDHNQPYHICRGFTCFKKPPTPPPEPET

[6] = biological target: DNA dC->dU-editing enzyme APOBEC-3A (Homo sapiens, UniProt P31941); test: APOBEC3A DNA deaminase inhibitors, dose response, biochemical (AID 504722); assay type: functional
Sequence of DNA dC->dU-editing enzyme APOBEC-3A (P31941 whole entry): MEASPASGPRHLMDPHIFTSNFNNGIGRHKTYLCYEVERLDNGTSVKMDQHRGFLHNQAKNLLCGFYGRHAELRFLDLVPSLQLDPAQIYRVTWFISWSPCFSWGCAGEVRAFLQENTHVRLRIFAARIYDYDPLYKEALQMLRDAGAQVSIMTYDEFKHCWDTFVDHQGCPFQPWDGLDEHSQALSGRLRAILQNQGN

[7] = biological target: DNA dC->dU-editing enzyme APOBEC-3G (Homo sapiens, UniProt Q9HC16); test: Dose Response confirmation of small molecule APOBEC3G DNA Deaminase Inhibitors via a fluorescence-based single-stranded DNA deaminase assay. [Related pubchem assays (depositor defined):AID493012, AID493028]; assay type: functional
Sequence of DNA dC->dU-editing enzyme APOBEC-3G (Q9HC16 whole entry): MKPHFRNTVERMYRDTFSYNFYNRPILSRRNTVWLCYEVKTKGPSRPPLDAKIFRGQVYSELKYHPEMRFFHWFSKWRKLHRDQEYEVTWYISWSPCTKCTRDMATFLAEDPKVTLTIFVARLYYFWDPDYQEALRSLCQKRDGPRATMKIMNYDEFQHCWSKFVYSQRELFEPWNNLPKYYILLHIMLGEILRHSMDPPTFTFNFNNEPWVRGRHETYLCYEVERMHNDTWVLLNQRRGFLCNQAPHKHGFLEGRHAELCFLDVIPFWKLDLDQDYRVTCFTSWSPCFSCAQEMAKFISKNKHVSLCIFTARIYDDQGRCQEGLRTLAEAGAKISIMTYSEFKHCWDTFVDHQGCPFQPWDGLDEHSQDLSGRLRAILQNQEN

[8] = biological target: T3, Acyl-homoserine lactone acylase PvdQ (Pseudomonas aeruginosa (strain LESB58), UniProt Q9I194); test: P. aeruginosa PvdQ acylase inhibitors, dose response, biochemical, fluorescence, plate reader and imaging, cherry-picks (AID 493231)
T3 sequence (Q9I194 whole entry): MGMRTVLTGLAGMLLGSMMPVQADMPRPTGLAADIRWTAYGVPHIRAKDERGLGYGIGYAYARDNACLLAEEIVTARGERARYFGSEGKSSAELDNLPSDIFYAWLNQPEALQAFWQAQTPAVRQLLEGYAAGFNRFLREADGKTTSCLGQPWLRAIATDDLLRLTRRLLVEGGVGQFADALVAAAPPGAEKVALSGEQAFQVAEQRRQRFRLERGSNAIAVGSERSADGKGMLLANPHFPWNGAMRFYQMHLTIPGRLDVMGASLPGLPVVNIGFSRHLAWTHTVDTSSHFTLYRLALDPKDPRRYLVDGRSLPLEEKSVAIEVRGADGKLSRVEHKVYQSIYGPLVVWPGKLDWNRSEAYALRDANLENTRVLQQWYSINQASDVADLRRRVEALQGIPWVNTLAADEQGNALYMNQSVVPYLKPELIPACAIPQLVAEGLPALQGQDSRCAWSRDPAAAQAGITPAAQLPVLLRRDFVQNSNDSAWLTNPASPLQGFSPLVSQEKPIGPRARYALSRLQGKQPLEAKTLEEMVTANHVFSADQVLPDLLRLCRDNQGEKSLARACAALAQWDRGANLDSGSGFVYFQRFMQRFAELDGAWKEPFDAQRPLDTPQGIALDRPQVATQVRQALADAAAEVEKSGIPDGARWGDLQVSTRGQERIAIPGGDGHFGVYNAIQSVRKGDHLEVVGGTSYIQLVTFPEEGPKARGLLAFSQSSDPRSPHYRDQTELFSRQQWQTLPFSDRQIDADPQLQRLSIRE

[9] = biological target: FAD-linked sulfhydryl oxidase ALR (Homo sapiens, UniProt P55789); test: inhibitors of human ALR sulfhydryl oxidase, dose response, biochemical, H2O2 detection, luminescence, cherry-pick (AID 493248)
Sequence of FAD-linked sulfhydryl oxidase ALR (P55789 whole entry): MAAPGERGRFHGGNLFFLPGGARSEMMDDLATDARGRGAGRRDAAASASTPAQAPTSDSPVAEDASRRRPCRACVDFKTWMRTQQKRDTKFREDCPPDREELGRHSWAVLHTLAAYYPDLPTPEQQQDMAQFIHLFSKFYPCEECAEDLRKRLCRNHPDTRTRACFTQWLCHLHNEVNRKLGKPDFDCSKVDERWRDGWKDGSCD

Escherichia coli = test: microbe, parasite or virus in culture
[10] = biological target: T4, Heat shock factor protein 1 (Mus musculus, UniProt P38532); test: inhibition of MG132-induced HSE-luciferase signal, confirmation, cell-based, NIH3T3, luminescence, dose retest (AID 2382); assay type: functional;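 further: NIH3T3 fibroblasts with HSF1-driven luciferase reporter stressed by proteasome inhibitor MG132; luminescence from HSF1-driven luciferase expression after 8 hours of MG132 stress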
T4 sequence (P38532 whole entry): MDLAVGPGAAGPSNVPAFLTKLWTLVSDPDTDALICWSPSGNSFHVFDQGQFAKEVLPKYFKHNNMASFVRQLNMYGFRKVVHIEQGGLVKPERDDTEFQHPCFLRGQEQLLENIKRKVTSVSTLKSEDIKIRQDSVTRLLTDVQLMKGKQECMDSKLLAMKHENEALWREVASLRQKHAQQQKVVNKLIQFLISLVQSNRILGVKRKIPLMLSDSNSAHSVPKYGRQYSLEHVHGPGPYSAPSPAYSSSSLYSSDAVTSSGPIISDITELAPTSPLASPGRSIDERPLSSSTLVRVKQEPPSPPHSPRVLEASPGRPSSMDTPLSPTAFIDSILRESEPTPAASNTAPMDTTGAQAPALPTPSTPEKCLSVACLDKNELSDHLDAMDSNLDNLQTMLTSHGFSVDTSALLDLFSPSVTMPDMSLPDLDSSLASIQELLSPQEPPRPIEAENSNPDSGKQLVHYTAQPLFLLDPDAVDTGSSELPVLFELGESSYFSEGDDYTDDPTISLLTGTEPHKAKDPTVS

Estrogen receptor beta [11] = biological target: T5, Estrogen receptor beta (Homo sapiens, UniProt Q92731);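 further: recombinant ER-beta bound to coactivator SRC1 peptide in presence of estradiol agonist; inhibitors block coactivator peptide binding and lower the FRET signal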
T5 sequence (Q92731 whole entry): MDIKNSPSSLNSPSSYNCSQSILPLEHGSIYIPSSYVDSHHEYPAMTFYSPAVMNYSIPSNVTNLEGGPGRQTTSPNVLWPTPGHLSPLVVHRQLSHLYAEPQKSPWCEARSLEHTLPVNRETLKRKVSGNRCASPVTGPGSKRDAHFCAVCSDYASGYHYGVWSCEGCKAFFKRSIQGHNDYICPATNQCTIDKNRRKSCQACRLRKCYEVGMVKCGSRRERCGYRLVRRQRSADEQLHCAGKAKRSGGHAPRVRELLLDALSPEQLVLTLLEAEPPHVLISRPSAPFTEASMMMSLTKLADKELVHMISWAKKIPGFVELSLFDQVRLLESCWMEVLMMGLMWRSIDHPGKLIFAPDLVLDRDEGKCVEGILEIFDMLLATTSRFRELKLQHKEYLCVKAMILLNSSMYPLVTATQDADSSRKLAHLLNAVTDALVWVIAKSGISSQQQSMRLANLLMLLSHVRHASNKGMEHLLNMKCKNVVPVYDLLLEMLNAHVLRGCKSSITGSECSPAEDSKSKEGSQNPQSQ

Estrogen receptor beta [12] = biological target: T5, Estrogen receptor beta; test: ERβ–SRC-3 coactivator interaction inhibitors, confirmation, orthogonal assay, biochemical, ELISA, streptavidin-HRP readout (AID 1060)
Estrogen receptor = biological target: T6, Estrogen receptor (Homo sapiens, UniProt P03372);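 further: potency for inhibiting coactivator peptide recruitment to the receptor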
T6 sequence (P03372 whole entry): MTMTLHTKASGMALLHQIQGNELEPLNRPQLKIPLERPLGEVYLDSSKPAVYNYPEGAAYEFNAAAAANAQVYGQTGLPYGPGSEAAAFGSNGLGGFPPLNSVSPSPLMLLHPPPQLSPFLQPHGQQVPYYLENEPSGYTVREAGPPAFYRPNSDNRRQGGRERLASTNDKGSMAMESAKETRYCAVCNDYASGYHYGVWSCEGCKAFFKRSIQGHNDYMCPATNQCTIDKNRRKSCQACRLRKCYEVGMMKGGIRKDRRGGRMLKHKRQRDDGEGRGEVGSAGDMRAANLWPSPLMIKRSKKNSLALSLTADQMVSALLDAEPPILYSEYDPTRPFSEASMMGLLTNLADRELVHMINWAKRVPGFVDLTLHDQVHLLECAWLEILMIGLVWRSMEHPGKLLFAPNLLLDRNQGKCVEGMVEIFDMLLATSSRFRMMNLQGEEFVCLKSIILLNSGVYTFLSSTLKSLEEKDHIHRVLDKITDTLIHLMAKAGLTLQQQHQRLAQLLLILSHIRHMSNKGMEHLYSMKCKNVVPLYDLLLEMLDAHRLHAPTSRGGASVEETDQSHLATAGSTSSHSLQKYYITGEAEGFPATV

O=C(c1cnc2ccccc2n1)N1CCN(c2ccc(C(F)(F)F)cn2)CC1
EC50 (Troponin, cardiac muscle): > 71.4 µM (inactive)

N=c1n(Cc2ccccc2)c2ccccc2n1CC(O)COc1ccccc1 (stereo unspecified)
IC50 [1]: 9.78 µM (active)
EC50 [2]: 9.02 µM (active)
EC50 [3]: 6.96 µM (active)
EC50 [4]: 0.267 µM (active)
EC50 [5]: 2.6 µM (active)

Cc1c(NC(=O)CSc2nnc(C(C)Oc3ccc(Cl)cc3)n2-c2ccccc2)c(=O)n(-c2ccccc2)n1C (stereo unspecified)
IC50 [1]: 13.8 µM (active)

O=c1c2c3c(sc2n2c(S)nnc2n1-c1ccccc1)CCC3
IC50 (Large T antigen): 30.4 µM (active)
IC50 [6]: > 100 µM (inactive)
IC50 [7]: 3.72 µM (active)

O=[N+]([O-])c1ccc(N2CCCC2)nc1
AC50 [8]: 5.4 µM (active)

CCCNS(=O)(=O)c1ccc(OC)c(Cl)c1Cl
AC50 [8]: 8.91 µM (active)

Cn1c(S)nnc1-c1sc2ccccc2c1Cl
AC50 [9]: 12 µM (active)
IC50 [1]: 8.32 µM (active)
IC50 [6]: > 100 µM (inactive)
IC50 [7]: 0.936 µM (active)

C=CCc1ccc(OCC(O)CN2CCC(Cc3ccccc3)CC2)c(OC)c1 (stereo unspecified)
IC50 [1]: 19.1 µM (active)
EC50 [5]: 6.13 µM (active)

Cn1cccc1C(C#N)c1cccc(F)c1C#N (stereo unspecified)
AC50 [8]: 4.57 µM (active)

CCOC(=O)CSc1cc(CS(C)(=O)=O)nc(-c2ccccn2)n1
AC50 (Escherichia coli): 56.8 µM (active)
EC50 [10]: > 195 µM (not active)

COc1ccc2[nH]c(SCCN(C)C)nc2c1
EC50 [4]: 0.149 µM (active)

Fc1cccc(C2NCCc3[nH]cnc32)c1 (stereo unspecified)
EC50 [4]: 3.76 µM (active)

COc1ccc(NC2=NC(=O)S/C2=C\c2ccc(N(C)C)cc2)cc1
IC50 (Estrogen receptor beta [11]): 12.7 µM (active)
IC50 (Estrogen receptor beta [12]): 85.5 µM (not active)
IC50 (Estrogen receptor): 33.3 µM (not active)
EC50 (Troponin, cardiac muscle): 2.02 µM (active)

COc1ccc2c(c1)c(C(O)CN1CCC(Cc3ccccc3)CC1)c(C)n2C (stereo unspecified)
AC50 (Escherichia coli): 73.6 µM (active)

O=C(Cn1cnc2c(cnn2-c2ccccc2)c1=O)Nc1ccc(S(=O)(=O)N2CCOCC2)cc1
EC50 (Troponin, cardiac muscle): > 71.5 µM (inactive)

COc1c(C)cc(C(=O)C2CCCN(Cc3cccc4nccnc34)C2)cc1C (stereo unspecified)
EC50 [4]: 3.35 µM (active)

O=C(/C=C/c1cccs1)c1cc(Cl)ccc1O
AC50 [8]: 4.67 µM (active)
